Reference: patent publication US12077503B2, “Substituted cyclic amides and their use as herbicides” (FMC CORPORATION, priority 2015, dated 2024)

How the values were obtained:
Experiment in all cases: Test C preemergence
Assay type in all cases: in vivo
soybean (Glycine max) = conditions: for Plant response rating, Soybean: scale 0 to 100, 0 no effect, 100 complete control
In short: (§1)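 Assessment: visual, 13–15 d after treatment, 0 (no effect) to 100 (complete control) relative to controls. Treatment: preemergence to seeds in loam-sand soil, or postemergence to 1- to 4-leaf plants in peat-based medium. Formulation: non-phytotoxic solvent mixture with surfactant.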

[1] = system: waterhemp (common waterhemp, Amaranthus rudis); conditions: for Plant response rating, Waterhemp: scale 0 to 100, 0 no effect, 100 complete control
In short: as §1

[2] = system: velvetleaf (Abutilon theophrasti); conditions: for Plant response rating, Velvetleaf: scale 0 to 100, 0 no effect, 100 complete control
In short: as §1

[3] = system: morningglory (Ipomoea coccinea); conditions: for Plant response rating, Morningglory: scale 0 to 100, 0 no effect, 100 complete control
In short: as §1

[4] = system: foxtail, giant (giant foxtail, Setaria faberii); conditions: for Plant response rating, Foxtail, Giant: scale 0 to 100, 0 no effect, 100 complete control
In short: as §1

[5] = system: blackgrass (Alopecurus myosuroides); conditions: for Plant response rating, Blackgrass: scale 0 to 100, 0 no effect, 100 complete control
In short: as §1

[6] = system: ryegrass, Italian (Italian ryegrass, Lolium multiflorum); conditions: for Plant response rating, Ryegrass, Italian: scale 0 to 100, 0 no effect, 100 complete control
In short: as §1

[7] = system: barnyardgrass (Echinochloa crus-galli); conditions: for Plant response rating, Barnyardgrass: scale 0 to 100, 0 no effect, 100 complete control
In short: as §1

[8] = system: nutsedge, yellow (yellow nutsedge, Cyperus esculentus); conditions: for Plant response rating, Nutsedge, Yellow: scale 0 to 100, 0 no effect, 100 complete control
In short: as §1

[9] = system: lambsquarters (Chenopodium album); conditions: for Plant response rating, Lambsquarters: scale 0 to 100, 0 no effect, 100 complete control
In short: as §1

[10] = system: oilseed rape (Brassica napus); conditions: for Plant response rating, Oilseed Rape: scale 0 to 100, 0 no effect, 100 complete control
In short: as §1

corn (Zea mays) = conditions: for Plant response rating, Corn: scale 0 to 100, 0 no effect, 100 complete control
In short: as §1

[11] = system: Galium (catchweed bedstraw, Galium aparine); conditions: for Plant response rating, Galium: scale 0 to 100, 0 no effect, 100 complete control
In short: as §1

[12] = system: crabgrass, large (large crabgrass, Digitaria sanguinalis); conditions: for Plant response rating, Crabgrass, Large: scale 0 to 100, 0 no effect, 100 complete control
In short: as §1

[13] = system: ragweed (common ragweed, Ambrosia elatior); conditions: for Plant response rating, Ragweed: scale 0 to 100, 0 no effect, 100 complete control
In short: as §1

[14] = system: wheat (winter wheat, Triticum aestivum); conditions: for Plant response rating, Wheat: scale 0 to 100, 0 no effect, 100 complete control
In short: as §1

[15] = system: johnsongrass (Sorghum halepense); conditions: for Plant response rating, Johnsongrass: scale 0 to 100, 0 no effect, 100 complete control
In short: as §1

[16] = 31 g ai/ha, 0 is no effect, 100 is complete control

Cc1ccc(C2CN(C)C(=O)C2C(=O)Nc2cccc(F)c2F)cc1 (centres unmarked) [Compound 662]
95: Plant response rating (scale of 0 to 100), Foxtail, Giant [4, 16] | Plant response rating, Foxtail, Giant ([4]; 62 g ai/ha) | Plant response rating, Foxtail, Giant ([4]; 125 g ai/ha) | Plant response rating, Blackgrass ([5]; 125 g ai/ha) | Plant response rating, Ryegrass, Italian ([6]; 250 g ai/ha) | Plant response rating (scale of 0 to 100), Barnyardgrass [7, 16]
60: Plant response rating (scale of 0 to 100), Waterhemp [1, 16] | Plant response rating (scale of 0 to 100), Johnsongrass [15, 16]
30: Plant response rating, Morningglory ([3]; 125 g ai/ha)
0: Plant response rating (scale of 0 to 100), Soybean (soybean (Glycine max); [16]) | Plant response rating, Soybean (soybean (Glycine max); 62 g ai/ha) | Plant response rating, Soybean (soybean (Glycine max); 125 g ai/ha) | Plant response rating, Soybean (soybean (Glycine max); 250 g ai/ha) | Plant response rating (scale of 0 to 100), Morningglory [3, 16] | Plant response rating, Morningglory ([3]; 62 g ai/ha) | Plant response rating (scale of 0 to 100), Nutsedge, Yellow [8, 16] | Plant response rating, Nutsedge, Yellow ([8]; 62 g ai/ha) | Plant response rating, Nutsedge, Yellow ([8]; 125 g ai/ha) | Plant response rating, Nutsedge, Yellow ([8]; 250 g ai/ha)
70: Plant response rating, Velvetleaf ([2]; 125 g ai/ha) | Plant response rating (scale of 0 to 100), Blackgrass [5, 16] | Plant response rating, Ryegrass, Italian ([6]; 62 g ai/ha) | Plant response rating (scale of 0 to 100), Oilseed Rape [10, 16] | Plant response rating, Corn (corn (Zea mays); 62 g ai/ha) | Plant response rating (scale of 0 to 100), Ragweed [13, 16] | Plant response rating, Wheat ([14]; 62 g ai/ha) | Plant response rating, Johnsongrass ([15]; 62 g ai/ha)
25: Plant response rating, Morningglory ([3]; 250 g ai/ha)
98: Plant response rating, Foxtail, Giant ([4]; 250 g ai/ha) | Plant response rating, Blackgrass ([5]; 250 g ai/ha) | Plant response rating, Barnyardgrass ([7]; 62 g ai/ha) | Plant response rating, Barnyardgrass ([7]; 125 g ai/ha) | Plant response rating (scale of 0 to 100), Crabgrass, Large [12, 16] | Plant response rating, Crabgrass, Large ([12]; 62 g ai/ha)
35: Plant response rating (scale of 0 to 100), Velvetleaf [2, 16] | Plant response rating (scale of 0 to 100), Wheat [14, 16]
55: Plant response rating (scale of 0 to 100), Corn (corn (Zea mays); [16])
85: Plant response rating, Waterhemp ([1]; 125 g ai/ha) | Plant response rating, Lambsquarters ([9]; 62 g ai/ha) | Plant response rating, Oilseed Rape ([10]; 62 g ai/ha) | Plant response rating, Corn (corn (Zea mays); 250 g ai/ha) | Plant response rating, Ragweed ([13]; 250 g ai/ha)
80: Plant response rating, Waterhemp ([1]; 62 g ai/ha) | Plant response rating, Ryegrass, Italian ([6]; 125 g ai/ha) | Plant response rating, Corn (corn (Zea mays); 125 g ai/ha) | Plant response rating, Ragweed ([13]; 125 g ai/ha)
50: Plant response rating, Velvetleaf ([2]; 62 g ai/ha) | Plant response rating (scale of 0 to 100), Ryegrass, Italian [6, 16]
90: Plant response rating, Waterhemp ([1]; 250 g ai/ha) | Plant response rating, Oilseed Rape ([10]; 125 g ai/ha) | Plant response rating, Oilseed Rape ([10]; 250 g ai/ha) | Plant response rating (scale of 0 to 100), Galium [11, 16] | Plant response rating, Galium ([11]; 250 g ai/ha) | Plant response rating, Wheat ([14]; 125 g ai/ha) | Plant response rating, Wheat ([14]; 250 g ai/ha) | Plant response rating, Johnsongrass ([15]; 125 g ai/ha) | Plant response rating, Johnsongrass ([15]; 250 g ai/ha)
75: Plant response rating, Velvetleaf ([2]; 250 g ai/ha) | Plant response rating, Blackgrass ([5]; 62 g ai/ha) | Plant response rating, Ragweed ([13]; 62 g ai/ha)
100: Plant response rating, Barnyardgrass ([7]; 250 g ai/ha) | Plant response rating (scale of 0 to 100), Lambsquarters [9, 16] | Plant response rating, Lambsquarters ([9]; 125 g ai/ha) | Plant response rating, Lambsquarters ([9]; 250 g ai/ha) | Plant response rating, Galium ([11]; 62 g ai/ha) | Plant response rating, Galium ([11]; 125 g ai/ha) | Plant response rating, Crabgrass, Large ([12]; 125 g ai/ha) | Plant response rating, Crabgrass, Large ([12]; 250 g ai/ha)
